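Test compounds were applied to cells in 96-well plates for 48 hours at 5 doses. GI50 is the concentration that inhibits growth by half. TGI: concentration producing complete growth inhibition.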
Key:
Assay in all cases: growth of human tumour cells (NCI), 48 h
PC-3 prostate = system: PC-3 prostate
CAKI-1 renal = system: CAKI-1 renal
SN12C renal = system: SN12C renal
UO-31 renal = system: UO-31 renal
SNB-75 CNS = system: SNB-75 CNS
786-0 renal = system: 786-0 renal
NCI-H226 lung = system: NCI-H226 lung
T-47D breast = system: T-47D breast
HCT-15 colon = system: HCT-15 colon
SK-MEL-5 melanoma = system: SK-MEL-5 melanoma
HCT-116 colon = system: HCT-116 colon
OVCAR-5 ovarian = system: OVCAR-5 ovarian
M14 melanoma = system: M14 melanoma
SK-OV-3 ovarian = system: SK-OV-3 ovarian
OVCAR-8 ovarian = system: OVCAR-8 ovarian
SK-MEL-2 melanoma = system: SK-MEL-2 melanoma
HT29 colon = system: HT29 colon
MCF7 breast = system: MCF7 breast
ACHN renal = system: ACHN renal
EKVX NSCLC = system: EKVX NSCLC
HL-60(TB) leukemia = system: HL-60(TB) leukemia
NCI-H23 lung = system: NCI-H23 lung
SK-MEL-28 melanoma = system: SK-MEL-28 melanoma
LOX IMVI melanoma = system: LOX IMVI melanoma
OVCAR-3 ovarian = system: OVCAR-3 ovarian
DU-145 prostate = system: DU-145 prostate
UACC-257 melanoma = system: UACC-257 melanoma
SR leukemia = system: SR leukemia
MOLT-4 leukemia = system: MOLT-4 leukemia
SF-539 CNS = system: SF-539 CNS
U251 CNS = system: U251 CNS
CCRF-CEM leukemia = system: CCRF-CEM leukemia
IGROV1 ovarian = system: IGROV1 ovarian
COLO 205 colon = system: COLO 205 colon
NCI/ADR-RES ovarian = system: NCI/ADR-RES ovarian
A549 NSCLC = system: A549 NSCLC
NCI-H460 lung = system: NCI-H460 lung
MDA-MB-231 breast = system: MDA-MB-231 breast
SF-268 CNS = system: SF-268 CNS
OVCAR-4 ovarian = system: OVCAR-4 ovarian
K-562 leukemia = system: K-562 leukemia
MALME-3M melanoma = system: MALME-3M melanoma
SW-620 colon = system: SW-620 colon
KM12 colon = system: KM12 colon
RPMI-8226 leukemia = system: RPMI-8226 leukemia
BT-549 breast = system: BT-549 breast
UACC-62 melanoma = system: UACC-62 melanoma
NCI-H522 lung = system: NCI-H522 lung
HCC-2998 colon = system: HCC-2998 colon
A498 renal = system: A498 renal
TK-10 renal = system: TK-10 renal
HS 578T breast = system: HS 578T breast
HOP-62 NSCLC = system: HOP-62 NSCLC
SNB-19 CNS = system: SNB-19 CNS
HOP-92 NSCLC = system: HOP-92 NSCLC
MDA-MB-435 = system: MDA-MB-435
RXF 393 renal = system: RXF 393 renal

COc1cccc(/C=N\Nc2ccc([N+](=O)[O-])cn2)c1O
GI50 (PC-3 prostate): 14 µM | TGI (PC-3 prostate): > 100 µM | GI50 (CAKI-1 renal): 1.74 µM | TGI (CAKI-1 renal): 4.14 µM | GI50 (SN12C renal): 4 µM | TGI (SN12C renal): 62 µM | GI50 (UO-31 renal): 1.74 µM | TGI (UO-31 renal): 7.24 µM | GI50 (SNB-75 CNS): 8.78 µM | TGI (SNB-75 CNS): 57.2 µM | GI50 (786-0 renal): 3.53 µM | TGI (786-0 renal): 28.9 µM | GI50 (NCI-H226 lung): 3.72 µM | TGI (NCI-H226 lung): 26.2 µM | GI50 (T-47D breast): 3.83 µM | TGI (T-47D breast): 89.1 µM | TGI (HCT-15 colon): 39.7 µM | GI50 (SK-MEL-5 melanoma): 1.76 µM | TGI (SK-MEL-5 melanoma): 5.92 µM | GI50 (HCT-116 colon): 3.04 µM | TGI (HCT-116 colon): 15.2 µM | GI50 (OVCAR-5 ovarian): 5.71 µM | TGI (OVCAR-5 ovarian): 82.7 µM | GI50 (M14 melanoma): 3.34 µM | TGI (M14 melanoma): 25.9 µM | GI50 (SK-OV-3 ovarian): 2.94 µM | TGI (SK-OV-3 ovarian): 20.4 µM | GI50 (OVCAR-8 ovarian): 2.55 µM | TGI (OVCAR-8 ovarian): 15.6 µM | GI50 (SK-MEL-2 melanoma): 9.69 µM | TGI (SK-MEL-2 melanoma): 54.4 µM | GI50 (HT29 colon): 28.8 µM | TGI (HT29 colon): > 100 µM | GI50 (MCF7 breast): 3.18 µM | TGI (MCF7 breast): 71.1 µM | GI50 (ACHN renal): 2.33 µM | TGI (ACHN renal): 7.61 µM | GI50 (EKVX NSCLC): 3.59 µM | TGI (EKVX NSCLC): 29.3 µM | GI50 (HL-60(TB) leukemia): 3.13 µM | TGI (HL-60(TB) leukemia): 17.7 µM | GI50 (NCI-H23 lung): 2.92 µM | TGI (NCI-H23 lung): 14.9 µM | GI50 (SK-MEL-28 melanoma): 19.6 µM | TGI (SK-MEL-28 melanoma): > 100 µM | GI50 (LOX IMVI melanoma): 2.58 µM | TGI (LOX IMVI melanoma): 14.6 µM | GI50 (OVCAR-3 ovarian): 2.38 µM | TGI (OVCAR-3 ovarian): 12 µM | GI50 (DU-145 prostate): 4.34 µM | TGI (DU-145 prostate): 62.6 µM | GI50 (UACC-257 melanoma): 3.19 µM | TGI (UACC-257 melanoma): 20.6 µM | GI50 (SR leukemia): 3.03 µM | TGI (SR leukemia): > 100 µM | GI50 (MOLT-4 leukemia): 3.43 µM | TGI (MOLT-4 leukemia): 16.9 µM | GI50 (SF-539 CNS): 2.93 µM | TGI (SF-539 CNS): 8.65 µM | GI50 (U251 CNS): 1.93 µM | TGI (U251 CNS): 19.8 µM | GI50 (CCRF-CEM leukemia): 3.42 µM | TGI (CCRF-CEM leukemia): 38.2 µM | GI50 (IGROV1 ovarian): 1.91 µM | TGI (IGROV1 ovarian): 13.5 µM | GI50 (COLO 205 colon): 27.8 µM | TGI (COLO 205 colon): > 100 µM | GI50 (NCI/ADR-RES ovarian): 2.43 µM | TGI (NCI/ADR-RES ovarian): 28 µM | GI50 (A549 NSCLC): 4.26 µM | TGI (A549 NSCLC): 46.3 µM | GI50 (NCI-H460 lung): 2.05 µM | TGI (NCI-H460 lung): 11 µM | GI50 (MDA-MB-231 breast): 3.95 µM | TGI (MDA-MB-231 breast): 96.2 µM | GI50 (SF-268 CNS): 2.58 µM | TGI (SF-268 CNS): 23.8 µM | GI50 (OVCAR-4 ovarian): 4.28 µM | TGI (OVCAR-4 ovarian): > 100 µM | GI50 (K-562 leukemia): 3.12 µM | TGI (K-562 leukemia): > 100 µM | GI50 (MALME-3M melanoma): 4.11 µM | TGI (MALME-3M melanoma): 36 µM | GI50 (SW-620 colon): 3.94 µM | TGI (SW-620 colon): > 100 µM | GI50 (KM12 colon): 6.04 µM | TGI (KM12 colon): 51.5 µM | GI50 (RPMI-8226 leukemia): 3.21 µM | TGI (RPMI-8226 leukemia): 27.8 µM | GI50 (BT-549 breast): 4.47 µM | TGI (BT-549 breast): 30 µM | GI50 (UACC-62 melanoma): 2.47 µM | TGI (UACC-62 melanoma): 8.9 µM | GI50 (NCI-H522 lung): 3.34 µM | TGI (NCI-H522 lung): 18.4 µM | GI50 (HCC-2998 colon): 8.01 µM | TGI (HCC-2998 colon): > 100 µM | GI50 (A498 renal): 2.42 µM | TGI (A498 renal): 15.4 µM | GI50 (TK-10 renal): 7.31 µM | TGI (TK-10 renal): > 100 µM | GI50 (HS 578T breast): 4.52 µM | TGI (HS 578T breast): > 100 µM | GI50 (HOP-62 NSCLC): 3.89 µM | TGI (HOP-62 NSCLC): 25.5 µM | GI50 (SNB-19 CNS): 3.13 µM | TGI (SNB-19 CNS): 27.8 µM | GI50 (HOP-92 NSCLC): 2.8 µM | TGI (HOP-92 NSCLC): 9.44 µM | GI50 (MDA-MB-435): 5.23 µM | TGI (MDA-MB-435): > 100 µM | GI50 (RXF 393 renal): 2.79 µM | TGI (RXF 393 renal): 12.7 µM
